ChEMBL document CHEMBL4270637, “Small molecule-induced degradation of the full length and V7 truncated variant forms of human androgen receptor” (Eur J Med Chem, 2018)
Calls of active or inactive are those of the source. The rule behind the calls is not given here.

Key:
Androgen receptor [1] = target: T1, Androgen receptor (Homo sapiens, UniProt P10275); assay: Inhibition of R1881-induced full length AR transcriptional activity in human LNCAP cells harboring AR2PB-eGFP construct after 72 hrs by fluorescence assay; type: cell-based
T1 sequence (P10275 whole entry): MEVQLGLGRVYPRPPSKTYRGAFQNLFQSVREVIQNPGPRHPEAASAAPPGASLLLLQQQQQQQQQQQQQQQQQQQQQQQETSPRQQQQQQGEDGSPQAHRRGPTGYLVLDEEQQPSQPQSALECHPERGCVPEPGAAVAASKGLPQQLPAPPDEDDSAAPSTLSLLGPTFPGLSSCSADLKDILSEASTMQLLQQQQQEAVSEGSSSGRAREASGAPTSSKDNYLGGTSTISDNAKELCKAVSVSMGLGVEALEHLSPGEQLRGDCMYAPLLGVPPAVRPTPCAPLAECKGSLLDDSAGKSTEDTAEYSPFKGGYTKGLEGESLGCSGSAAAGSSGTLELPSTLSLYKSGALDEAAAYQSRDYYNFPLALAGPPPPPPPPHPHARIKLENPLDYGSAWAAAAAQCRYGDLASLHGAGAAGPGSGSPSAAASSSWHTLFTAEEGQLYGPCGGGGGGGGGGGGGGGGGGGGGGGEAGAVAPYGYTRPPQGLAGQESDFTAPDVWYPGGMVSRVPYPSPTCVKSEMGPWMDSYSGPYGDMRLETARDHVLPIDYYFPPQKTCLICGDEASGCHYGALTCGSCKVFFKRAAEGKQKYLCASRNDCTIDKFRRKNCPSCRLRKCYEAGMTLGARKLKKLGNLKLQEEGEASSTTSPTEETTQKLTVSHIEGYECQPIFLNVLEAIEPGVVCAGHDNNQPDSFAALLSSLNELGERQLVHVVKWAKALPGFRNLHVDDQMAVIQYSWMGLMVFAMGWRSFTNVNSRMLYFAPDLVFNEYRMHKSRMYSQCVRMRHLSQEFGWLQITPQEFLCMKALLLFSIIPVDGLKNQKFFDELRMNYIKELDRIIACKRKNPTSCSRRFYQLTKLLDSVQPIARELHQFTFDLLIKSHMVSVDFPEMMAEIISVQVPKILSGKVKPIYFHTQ

Androgen receptor [2] = target: Androgen receptor (Homo sapiens, UniProt P10275); assay: Inhibition of R1881-induced transcriptional activity of human AR V7 truncated mutant expressed in human PC3 cells harboring pGL3-ARR3tk-NLuc after 24 hrs by luciferase reporter gene assay; type: cell-based
Androgen receptor [3] = target: T1, Androgen receptor; assay: Inhibition of full length AR transcriptional activity in human LNCAP cells harboring AR2PB-eGFP construct assessed as reduction in R1881-induced secreted PSA level after 72 hrs by fluorescence assay; type: cell-based
CWR22R [4] = assay: Cytotoxicity against human 22Rv1 cells assessed as growth inhibition at lower concentration after 72 hrs by presto-blue dye based assay; type: functional, cell-based
[5] = target: T2, Androgen receptor (Homo sapiens) (UniProt P10275); assay: Induction of full length AR degradation in human LNCAP cells at 2 to 20 uM after 5 hrs by Western blot analysis; type: cell-based
T2 sequence (whole entry): T1 sequence (P10275 whole entry)

LNCaP [6] = assay: Induction of apoptosis in human LNCAP cells assessed as PARP cleavage at 2 to 20 uM after 5 hrs by Western blot analysis; type: functional, cell-based
[7] = target: T2, Androgen receptor (Homo sapiens); details: at 10 µM
Description: Antagonist activity at full length YFP-tagged AR (unknown origin) expressed in HEK293T cells assessed as inhibition of R1881-induced nuclear translocation at 10 uM after 4 hrs by DAPI staining based confocal microscopic method

LNCaP [8] = assay: Cytotoxicity against human LNCAP cells harboring AR2PB-eGFP construct after 72 hrs by MTS assay; type: cell-based
PC-3 [9] = assay: Cytotoxicity against human PC3 cells harboring pGL3-ARR3tk-NLu/human AR V7 truncated mutant after 72 hrs by MTS assay; type: cell-based; details: pc-3, 72 h
CWR22R [10] = assay: Cytotoxicity against human 22Rv1 cells assessed as growth inhibition at 5 uM after 72 hrs by presto-blue dye based assay; type: functional, cell-based
CWR22R [11] = assay: Cytotoxicity against human 22Rv1 cells assessed as growth inhibition at 0.5 uM after 72 hrs by presto-blue dye based assay; type: functional, cell-based
PC-3 [12] = assay: Cytotoxicity against human PC3 cells assessed as growth inhibition after 72 hrs by presto-blue dye based assay; type: cell-based; details: pc-3, 72 h
[13] = target: T2, Androgen receptor (Homo sapiens); assay: Induction of full length AR degradation in human LNCAP cells assessed as reduction in AR mRNA level at 2 to 20 uM after […] by RT-PCR method; type: cell-based
Androgen receptor [14] = target: T3, Androgen receptor (Rattus norvegicus, UniProt P15207); assay: Displacement of Fluormone-DHT from rat GST-tagged rat AR LBD expressed in insect cells after 4 hrs by fluorescence polarization assay
T3 sequence (P15207 whole entry): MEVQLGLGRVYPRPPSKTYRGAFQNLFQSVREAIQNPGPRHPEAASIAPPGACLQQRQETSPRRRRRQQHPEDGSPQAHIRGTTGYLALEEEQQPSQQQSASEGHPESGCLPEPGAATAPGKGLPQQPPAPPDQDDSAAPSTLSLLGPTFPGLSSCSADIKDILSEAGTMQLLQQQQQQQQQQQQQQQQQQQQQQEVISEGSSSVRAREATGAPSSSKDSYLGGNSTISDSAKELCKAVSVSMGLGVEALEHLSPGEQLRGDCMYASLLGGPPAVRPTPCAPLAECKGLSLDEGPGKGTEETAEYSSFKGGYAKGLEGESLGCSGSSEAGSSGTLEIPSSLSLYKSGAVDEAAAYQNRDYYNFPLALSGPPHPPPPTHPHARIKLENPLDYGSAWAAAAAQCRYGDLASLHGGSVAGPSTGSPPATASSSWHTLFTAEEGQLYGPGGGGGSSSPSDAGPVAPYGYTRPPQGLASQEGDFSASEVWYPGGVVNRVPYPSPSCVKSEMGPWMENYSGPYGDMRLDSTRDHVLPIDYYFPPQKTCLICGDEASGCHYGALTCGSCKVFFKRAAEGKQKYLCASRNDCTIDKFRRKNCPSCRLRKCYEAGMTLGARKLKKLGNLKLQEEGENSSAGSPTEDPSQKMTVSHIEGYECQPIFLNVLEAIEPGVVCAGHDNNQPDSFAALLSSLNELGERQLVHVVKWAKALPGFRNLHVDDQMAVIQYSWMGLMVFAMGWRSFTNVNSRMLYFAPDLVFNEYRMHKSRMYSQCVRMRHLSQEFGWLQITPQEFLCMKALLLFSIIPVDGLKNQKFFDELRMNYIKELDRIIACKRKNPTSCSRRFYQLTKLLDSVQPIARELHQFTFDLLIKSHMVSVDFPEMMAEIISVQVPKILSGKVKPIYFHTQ

[15] = target: T2, Androgen receptor (Homo sapiens); assay: Inhibition of R1881-induced transcriptional activity of human AR expressed in human PC3 cells harboring pGL3-ARR3tk-NLuc at 2 uM after 24 hrs by luciferase reporter gene assay; type: cell-based
[16] = target: Estrogen receptor (Homo sapiens) (UniProt Q92731+P03372); assay: Inhibition of estradiol-induced transcriptional activity of human ER expressed in human PC3 cells harboring pGL3-ERE-NLuc at 2 uM after 24 hrs by luciferase reporter gene assay; type: cell-based
[17] = target: T4, Glucocorticoid receptor (Homo sapiens) (UniProt P04150); assay: Inhibition of dexamethasone-induced transcriptional activity of human GR expressed in human PC3 cells harboring pGL3-ARR3tk-NLuc at 2 uM after 24 hrs by luciferase reporter gene assay; type: cell-based
T4 sequence (whole entry): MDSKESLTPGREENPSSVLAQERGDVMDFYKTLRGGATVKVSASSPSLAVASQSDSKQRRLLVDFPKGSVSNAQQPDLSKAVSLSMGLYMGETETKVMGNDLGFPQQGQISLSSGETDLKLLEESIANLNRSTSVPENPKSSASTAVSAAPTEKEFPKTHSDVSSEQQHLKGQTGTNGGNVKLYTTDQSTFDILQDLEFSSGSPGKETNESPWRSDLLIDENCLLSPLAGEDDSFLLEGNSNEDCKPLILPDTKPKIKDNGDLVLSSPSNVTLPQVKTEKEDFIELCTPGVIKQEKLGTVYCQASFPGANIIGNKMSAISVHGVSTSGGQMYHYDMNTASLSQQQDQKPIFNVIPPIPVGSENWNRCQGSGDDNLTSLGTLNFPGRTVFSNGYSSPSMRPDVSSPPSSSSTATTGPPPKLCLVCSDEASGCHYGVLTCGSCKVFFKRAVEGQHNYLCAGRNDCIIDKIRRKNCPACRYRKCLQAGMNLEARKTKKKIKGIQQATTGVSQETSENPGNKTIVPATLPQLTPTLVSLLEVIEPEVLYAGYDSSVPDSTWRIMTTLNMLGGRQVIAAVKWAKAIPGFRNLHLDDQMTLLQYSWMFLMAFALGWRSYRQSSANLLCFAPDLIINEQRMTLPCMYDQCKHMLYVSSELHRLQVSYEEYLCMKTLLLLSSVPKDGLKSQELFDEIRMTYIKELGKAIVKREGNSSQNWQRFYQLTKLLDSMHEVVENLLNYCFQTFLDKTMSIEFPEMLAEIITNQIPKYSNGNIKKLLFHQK

[18] = target: T5, Progesterone receptor (Homo sapiens) (UniProt P06401); assay: Inhibition of progesterone-induced transcriptional activity of human PR expressed in human PC3 cells harboring pGL3-ARR3tk-NLuc at 2 uM after 24 hrs by luciferase reporter gene assay; type: cell-based
T5 sequence (whole entry): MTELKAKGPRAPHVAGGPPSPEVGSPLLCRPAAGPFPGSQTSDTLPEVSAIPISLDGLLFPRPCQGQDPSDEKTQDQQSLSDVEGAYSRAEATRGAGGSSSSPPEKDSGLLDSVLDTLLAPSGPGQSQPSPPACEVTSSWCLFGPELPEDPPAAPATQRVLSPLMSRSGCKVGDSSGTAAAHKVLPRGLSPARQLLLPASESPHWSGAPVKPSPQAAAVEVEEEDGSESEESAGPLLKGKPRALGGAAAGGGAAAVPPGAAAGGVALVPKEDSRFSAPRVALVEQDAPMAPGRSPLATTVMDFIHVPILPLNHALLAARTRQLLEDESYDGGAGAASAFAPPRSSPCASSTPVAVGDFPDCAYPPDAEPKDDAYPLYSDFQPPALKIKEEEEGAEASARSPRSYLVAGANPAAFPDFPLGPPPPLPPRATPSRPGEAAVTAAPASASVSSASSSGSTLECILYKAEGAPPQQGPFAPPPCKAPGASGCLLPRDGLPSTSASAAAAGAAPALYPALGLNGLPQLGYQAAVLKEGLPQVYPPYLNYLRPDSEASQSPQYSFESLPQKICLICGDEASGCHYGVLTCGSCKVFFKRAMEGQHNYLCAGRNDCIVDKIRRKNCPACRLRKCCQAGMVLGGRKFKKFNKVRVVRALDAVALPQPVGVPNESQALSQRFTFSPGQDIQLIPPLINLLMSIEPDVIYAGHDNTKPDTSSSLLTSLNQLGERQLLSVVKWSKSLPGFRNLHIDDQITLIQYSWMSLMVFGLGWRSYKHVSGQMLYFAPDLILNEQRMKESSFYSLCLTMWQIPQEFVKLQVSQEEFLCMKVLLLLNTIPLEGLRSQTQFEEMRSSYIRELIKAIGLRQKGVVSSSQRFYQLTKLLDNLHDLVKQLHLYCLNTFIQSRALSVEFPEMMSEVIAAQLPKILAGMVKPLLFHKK

Tubulin = assay: Inhibition of tubulin polymerization (unknown origin); type: protein-complex assay, Homo sapiens

Row | SMILES | IC50 (Androgen receptor [1]) [nM] | IC50 (Androgen receptor [2]) [nM] | IC50 (Androgen receptor [3]) [nM] | Activity [5] | inhibition [7] | Activity [13] | IC50 (Androgen receptor [14]) [nM] | inhibition [15] | inhibition [16] | inhibition [17] | inhibition [18] | IC50 (Tubulin) [nM] | growth inhibition (GI) (CWR22R [4]) | Activity (LNCaP [6]) | Activity (LNCaP [8]) | Activity (PC-3 [9]) | growth inhibition (GI) (CWR22R [10]) | growth inhibition (GI) (CWR22R [11]) | growth inhibition (GI) (PC-3 [12])
1 | COc1ccc(C=C2c3cccc(Cl)c3C(=O)c3c(Cl)cccc32)c(OC)c1O | 1140 | 10000 | 170 | inactive | inactive |  |  |  |  |  |  |  | Active | inactive |  |  |  |  | 
2 | O=C1c2c(Cl)cccc2C(=Cc2ccccc2O)c2cccc(Cl)c21 |  |  |  |  |  |  |  |  |  |  |  |  |  |  | Toxic | Toxic |  |  | 
3 | COc1cccc(C=C2c3cccc(Cl)c3C(=O)c3c(Cl)cccc32)c1O | 1480 | 10000 | 730 | Active | inactive |  |  |  |  |  |  |  |  | inactive |  |  | Active |  | 
4 | COc1ccc(C=C2c3ccccc3C(=O)c3ccccc32)c(O)c1 | 232 | < 10000 | 100 | Active | inactive | inactive |  | Active | inactive | inactive | inactive |  | Active | inactive |  |  |  |  | 

Now from value to molecule, other results behind:

Row | IC50 (Androgen receptor [1]) [nM] | IC50 (Androgen receptor [2]) [nM] | IC50 (Androgen receptor [3]) [nM] | Activity [5] | inhibition [7] | Activity [13] | IC50 (Androgen receptor [14]) [nM] | inhibition [15] | inhibition [16] | inhibition [17] | inhibition [18] | IC50 (Tubulin) [nM] | SMILES | growth inhibition (GI) (CWR22R [4]) | Activity (LNCaP [6]) | Activity (LNCaP [8]) | Activity (PC-3 [9]) | growth inhibition (GI) (CWR22R [10]) | growth inhibition (GI) (CWR22R [11]) | growth inhibition (GI) (PC-3 [12])
5 | > 10000 | > 10000 |  |  |  |  |  |  |  |  |  |  | COc1cc(C=C2c3cccc(Cl)c3C(=O)c3c(Cl)cccc32)cc(OC)c1O |  |  |  |  |  |  | 
6 | 1890 to 6000 | 10000 | 340 | inactive | inactive |  |  |  |  |  |  |  | COc1ccc(C=C2c3cccc(Cl)c3C(=O)c3c(Cl)cccc32)cc1O | Active | inactive |  |  |  |  | 
7 | 316 | < 10000 | 350 | Active | inactive | inactive | 625 to 2500 | Active | inactive | inactive | inactive | 10000 | O=C1c2ccccc2C(=Cc2cccc(O)c2)c2ccccc21 |  | inactive |  |  |  | Active | Toxic
